Reference: ChEMBL document CHEMBL1149877, “Synthesis and biological activities of 2-oxocycloalkylsulfonamides” (Bioorg Med Chem, 2008)
≈ marks a conversion by molar mass, not a printed value.

Legend:
Botrytis cinerea = experiment: Antifungal activity against Botrytis cinerea Pers; format: functional, organism-based
Sclerotinia sclerotiorum = experiment: Antifungal activity against Sclerotinia sclerotiorum; format: functional, organism-based
Bel-7402 = experiment: Antitumor activity against human Bel7402 cells at 100 ug/mL by SRB method; format: functional
HL-60 = experiment: Antitumor activity against human HL60 cells at 100 ug/mL by MTT method; format: functional
KB = experiment: Antitumor activity against human KB cells at 100 ug/mL by SRB method; format: functional
BGC-823 = experiment: Antitumor activity against human BGC823 cells at 100 ug/mL by SRB method; format: functional

EC50 (Botrytis cinerea) [µg/mL] | EC50 (Sclerotinia sclerotiorum) [µg/mL] | SMILES | inhibition at 100 µg/mL (Bel-7402) [%] | inhibition at 100 µg/mL (HL-60) [%] | inhibition at 100 µg/mL (KB) [%] | inhibition at 100 µg/mL (BGC-823) [%]
2.43 (≈ 6.02 µM) | 8.05 (≈ 20 µM) | O=C1CCCCCC1S(=O)(=O)Nc1cc(C(F)(F)F)cc(C(F)(F)F)c1 (centres undefined) | 45.3 | 95.8 | 59 | 57
2.38 (≈ 7.08 µM) | 16.4 (≈ 48.7 µM) | O=C1CCCCCC1S(=O)(=O)Nc1ccc(Cl)c(Cl)c1 (centres undefined) | 4.03 | 15 | -6.3 | 28.9
17 (≈ 59 µM) | 53.4 (≈ 186 µM) | O=C1CCCCC1S(=O)(=O)Nc1ccc(Cl)cc1 (centres undefined) | 4.47 | -13 | -3.83 | 16
50.6 (≈ 152 µM) | 47.8 (≈ 144 µM) | O=C1CCCCC1S(=O)(=O)Nc1ccccc1Br (centres undefined) | 22.1 | 15.3 | -14.4 | 29.6
3.66 (≈ 9.4 µM) | 70.5 (≈ 181 µM) | O=C1CCCCC1S(=O)(=O)Nc1cc(C(F)(F)F)ccc1C(F)(F)F (centres undefined) | 68.3 | 95.7 | 68.6 | 57.7
7.23 (≈ 22.4 µM) | 24.2 (≈ 75.2 µM) | O=C1CCCCC1S(=O)(=O)Nc1ccc(Cl)c(Cl)c1 (centres undefined) | 1.39 | 13.5 | 17.8 | 5.54
2.12 (≈ 5.96 µM) | 47.5 (≈ 134 µM) | O=C1CCCCC1S(=O)(=O)Nc1ccc(Cl)cc1C(F)(F)F (centres undefined) | 20.9 | 78.6 | 11.2 | 36.4
21.2 (≈ 79.4 µM) | 116 (≈ 434 µM) | Cc1ccc(NS(=O)(=O)C2CCCCC2=O)cc1 (centres undefined) | 27.5 | -3.55 | -22.2 | 32
17 (≈ 60.3 µM) | 112 (≈ 397 µM) | Cc1ccc(NS(=O)(=O)C2CCCCC2=O)c(C)c1 (centres undefined) | 0.52 | 12.2 | 7.97 | 15.6

Further lines, the compound ahead of its results:

SMILES | EC50 (Botrytis cinerea) [µg/mL] | EC50 (Sclerotinia sclerotiorum) [µg/mL] | inhibition at 100 µg/mL (Bel-7402) [%] | inhibition at 100 µg/mL (HL-60) [%] | inhibition at 100 µg/mL (KB) [%] | inhibition at 100 µg/mL (BGC-823) [%]
O=C1CCCCC1S(=O)(=O)Nc1cc(C(F)(F)F)cc(C(F)(F)F)c1 (centres undefined) | 3.96 (≈ 10.2 µM) | 24.1 (≈ 62 µM) | 66.9 | 95.9 | 76 | 70.8
Cc1cc(F)ccc1NS(=O)(=O)C1CCCCC1=O (centres undefined) | 37.7 (≈ 132 µM) | 137 (≈ 480 µM) | 3.22 | -0.99 | -3.72 | 28.7
COc1cc(OC)nc(NS(=O)(=O)C2CCCCC2=O)n1 (centres undefined) | 28.6 (≈ 90.8 µM) | 197 (≈ 626 µM) | 39.3 | 2.62 | 2.73 | 26.4
O=C1CCCCC1S(=O)(=O)Nc1cccc(C(F)(F)F)c1 (centres undefined) | 85.2 (≈ 265 µM) | 144 (≈ 448 µM) | 11.4 | 17 | -6.3 | 21.6
O=C1CCCCC1S(=O)(=O)Nc1ccccc1Cl (centres undefined) | 35.2 (≈ 122 µM) | 69.4 (≈ 241 µM) | 1.98 | 0.29 | -10.1 | 29.2
Cc1cccc(NS(=O)(=O)C2CCCCCC2=O)c1C (centres undefined) | 11.6 (≈ 39.3 µM) | 47.6 (≈ 161 µM) | 12.1 | 22.9 | 2.01 | 23.8
O=C1CCCCC1S(=O)(=O)N1CCOCC1 (centres undefined) | 85.2 (≈ 345 µM) | 331 (≈ 1340 µM) | 6.01 | 11 | -4.35 | 21.3
N#Cc1c(Cl)c(Cl)c(Cl)c(C#N)c1Cl [CHLOROTHALONIL] | – | 7.16 (≈ 26.9 µM) | – | – | – | –
CC12CC1(C)C(=O)N(c1cc(Cl)cc(Cl)c1)C2=O (centres undefined) [PROCYMIDONE] | 2.45 (≈ 8.62 µM) | – | – | – | – | –
Cc1cccc(NS(=O)(=O)C2CCCCC2=O)c1C (centres undefined) | 24.2 (≈ 86 µM) | 59.3 (≈ 211 µM) | 21.8 | 9.38 | -20.6 | 24.5
